Assays:
[1] = molecular target: T1, Interleukin-1 receptor-associated kinase 4 (Homo sapiens, UniProt Q9NWZ3); assay: Inhibition of IRAK4
T1 sequence (Q9NWZ3 whole entry): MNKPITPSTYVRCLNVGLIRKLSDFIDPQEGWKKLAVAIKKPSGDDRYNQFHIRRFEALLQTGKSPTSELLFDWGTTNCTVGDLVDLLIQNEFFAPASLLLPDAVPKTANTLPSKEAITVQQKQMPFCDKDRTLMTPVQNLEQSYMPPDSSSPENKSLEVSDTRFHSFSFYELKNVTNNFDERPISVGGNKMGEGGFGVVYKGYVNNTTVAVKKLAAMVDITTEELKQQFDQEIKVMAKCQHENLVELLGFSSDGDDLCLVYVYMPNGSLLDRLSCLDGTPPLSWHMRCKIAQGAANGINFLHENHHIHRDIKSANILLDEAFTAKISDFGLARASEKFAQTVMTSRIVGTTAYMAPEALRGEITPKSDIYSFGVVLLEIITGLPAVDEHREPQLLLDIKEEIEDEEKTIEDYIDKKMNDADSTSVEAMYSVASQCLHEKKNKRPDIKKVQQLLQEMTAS

[2] = molecular target: T2, Interleukin-1 receptor-associated kinase 4 (Homo sapiens) (UniProt Q9NWZ3); assay: Inhibition of IRAK4 at 30 uM
T2 sequence (whole entry): T1 sequence (Q9NWZ3 whole entry)

HeLa = assay: Antiproliferative activity against human HeLa cell line after 72 hrs; format: functional; conditions: read-out: ED50 (the source's name)
[3] = molecular target: Interleukin-1 receptor-associated kinase 1 (Homo sapiens, UniProt P51617); assay: Inhibition of IRAK1
Chain of Interleukin-1 receptor-associated kinase 1 (P51617 whole entry): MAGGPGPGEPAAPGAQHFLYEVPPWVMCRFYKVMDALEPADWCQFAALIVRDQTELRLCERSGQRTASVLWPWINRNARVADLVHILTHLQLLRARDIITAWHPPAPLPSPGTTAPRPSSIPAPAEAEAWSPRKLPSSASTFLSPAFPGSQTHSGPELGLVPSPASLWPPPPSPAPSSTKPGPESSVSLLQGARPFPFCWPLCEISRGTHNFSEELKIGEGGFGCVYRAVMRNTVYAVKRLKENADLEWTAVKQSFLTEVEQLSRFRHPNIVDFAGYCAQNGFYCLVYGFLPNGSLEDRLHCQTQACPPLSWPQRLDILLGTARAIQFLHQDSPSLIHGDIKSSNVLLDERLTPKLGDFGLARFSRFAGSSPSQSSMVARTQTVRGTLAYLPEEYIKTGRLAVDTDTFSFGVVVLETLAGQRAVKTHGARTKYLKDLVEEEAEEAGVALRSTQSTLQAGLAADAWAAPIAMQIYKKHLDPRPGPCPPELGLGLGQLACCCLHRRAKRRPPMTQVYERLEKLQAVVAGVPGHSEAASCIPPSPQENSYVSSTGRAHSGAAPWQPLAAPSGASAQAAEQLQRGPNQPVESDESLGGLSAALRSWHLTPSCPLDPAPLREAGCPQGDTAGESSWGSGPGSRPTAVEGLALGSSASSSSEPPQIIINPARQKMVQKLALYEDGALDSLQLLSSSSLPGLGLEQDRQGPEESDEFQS

Structure (SMILES) | IC50 [1] | also measured
N#Cc1cccc(C(=O)Nc2nc3ccccc3[nH]2)c1 | 13.6 µM | 
Cc1ccc(C(=O)Nc2nc3ccccc3[nH]2)cc1[N+](=O)[O-] | 12 µM | 
CCCCn1c(NC(=O)c2ccc([N+](=O)[O-])cc2)nc2ccccc21 |  | inhibition [2]: 8%
CCOC(=O)Cn1c(NC(=O)c2cccc([N+](=O)[O-])c2)nc2ccccc21 | 0.4 µM | EC50 (HeLa): > 30 µM; IC50 [3]: 0.75 µM
C=CCN(C(=O)c1cccc([N+](=O)[O-])c1)c1nc2ccccc2n1CC=C | > 30 µM | 
O=C(Nc1nc2ccc(F)cc2[nH]1)c1cccc([N+](=O)[O-])c1 | 4.5 µM | 
CCCCn1c(NC(=O)c2ccc(Cl)c(Cl)c2)nc2ccccc21 | 3 µM | 
O=C(Nc1cccc([N+](=O)[O-])c1)Nc1nc2ccccc2[nH]1 |  | inhibition [2]: 15%
O=[N+]([O-])c1cccc(CNc2nc3ccccc3[nH]2)c1 |  | inhibition [2]: 8%
O=C(Nc1nc2ccc(Cl)cc2[nH]1)c1cccc([N+](=O)[O-])c1 | 6 µM | 
Cc1ccc2nc(NC(=O)c3cccc([N+](=O)[O-])c3)[nH]c2c1 | 0.8 µM | 
O=C(O)Cn1c(NC(=O)c2cccc([N+](=O)[O-])c2)nc2ccccc21 |  | inhibition [2]: 38%
Cc1cc2nc(NC(=O)c3cccc([N+](=O)[O-])c3)[nH]c2cc1C | 8 µM | 
O=C(Nc1nc2ccccc2s1)c1cccc([N+](=O)[O-])c1 |  | inhibition [2]: 11%
O=C(Nc1nc2ccccc2n1C1CCOC1=O)c1cccc([N+](=O)[O-])c1 (stereo unspecified) | 0.55 µM | 
O=[N+]([O-])c1cccc(S(=O)(=O)Nc2nc3ccccc3[nH]2)c1 |  | inhibition [2]: 45%
O=C(Nc1nc2ccccc2[nH]1)c1ccccc1 |  | inhibition [2]: 11%

Structure (SMILES) | IC50 [1] | also measured
O=C(Nc1nc2cc(Cl)c(Cl)cc2[nH]1)c1cccc([N+](=O)[O-])c1 |  | inhibition [2]: 10%
CCCCn1c(NC(=O)c2ccc(OC)cc2)nc2ccccc21 | 6.5 µM | 
O=C(Nc1nc2ccccc2[nH]1)c1cccc([N+](=O)[O-])c1 | 4 µM | 
O=C(Nc1nc2ccc[nH]c-2n1)c1cccc([N+](=O)[O-])c1 |  | inhibition [2]: 39%
O=C(Nc1nc2cc([N+](=O)[O-])ccc2[nH]1)c1cccc([N+](=O)[O-])c1 |  | inhibition [2]: 29%
O=C(Nc1nc2c([N+](=O)[O-])cccc2[nH]1)c1cccc([N+](=O)[O-])c1 |  | inhibition [2]: 25%
CN(C(=O)c1cccc([N+](=O)[O-])c1)c1nc2ccccc2n1C1CCOC1=O (stereo unspecified) | > 30 µM | 
O=C(Nc1nc2cc(F)c(F)cc2[nH]1)c1cccc([N+](=O)[O-])c1 | 30 µM | 
O=C(Nc1nc2ccccc2n1CCN1CCOCC1)c1cccc([N+](=O)[O-])c1 | 0.2 µM | EC50 (HeLa): > 30 µM; IC50 [3]: 0.3 µM
COc1ccc2nc(NC(=O)c3cccc([N+](=O)[O-])c3)[nH]c2c1 | 1.5 µM | 
CCCS(=O)(=O)c1ccc2[nH]c(NC(=O)c3cccc([N+](=O)[O-])c3)nc2c1 | 4 µM | 
CCCCn1c(NC(=O)c2cccc(Cl)c2)nc2ccccc21 | 30 µM | 
O=C(Nc1nc2c(F)c(F)ccc2[nH]1)c1cccc([N+](=O)[O-])c1 |  | inhibition [2]: 24%
O=C(Nc1nc2ccccc2[nH]1)c1ccc(F)c([N+](=O)[O-])c1 | 6.5 µM | 
O=C(Nc1nc2cc[nH]cc-2n1)c1cccc([N+](=O)[O-])c1 | 30 µM | 
COC(=O)c1ccc2[nH]c(NC(=O)c3cccc([N+](=O)[O-])c3)nc2c1 | 25 µM | 

Second part, led by results:

IC50 [1] | Structure (SMILES) | also measured
2 µM | O=C(Nc1nc2ccccc2n1CCC1CCC1)c1cccc([N+](=O)[O-])c1 | 
2 µM | CCOCCn1c(NC(=O)c2cccc([N+](=O)[O-])c2)nc2ccccc21 | 
2 µM | CCn1c(NC(=O)c2cccc([N+](=O)[O-])c2)nc2ccccc21 | 
4 µM | O=C(O)CCn1c(NC(=O)c2cccc([N+](=O)[O-])c2)nc2ccccc21 | 
0.4 µM | O=C(Nc1nc2ccccc2n1CCO)c1cccc([N+](=O)[O-])c1 | 
3 µM | CCN(CC)CCn1c(NC(=O)c2cccc([N+](=O)[O-])c2)nc2ccccc21 | 
2 µM | CCCCn1c(NC(=O)c2cccc([N+](=O)[O-])c2)nc2ccccc21 | 
1 µM | COCCn1c(NC(=O)c2cccc([N+](=O)[O-])c2)nc2ccccc21 | 
4 µM | CN(C)CCCn1c(NC(=O)c2cccc([N+](=O)[O-])c2)nc2ccccc21 | 
1 µM | CCOC(=O)CCn1c(NC(=O)c2cccc([N+](=O)[O-])c2)nc2ccccc21 | 
1 µM | CC(C)n1c(NC(=O)c2cccc([N+](=O)[O-])c2)nc2ccccc21 | 
1 µM | C=CCn1c(NC(=O)c2cccc([N+](=O)[O-])c2)nc2ccccc21 | 
0.5 µM | O=C(Nc1nc2ccccc2n1CC1CCCO1)c1cccc([N+](=O)[O-])c1 (stereo unspecified) | 
20 µM | CCCCCn1c(NC(=O)c2cccc([N+](=O)[O-])c2)nc2ccccc21 | 

From ChEMBL document CHEMBL1147720, “Discovery and initial SAR of inhibitors of interleukin-1 receptor-associated kinase-4” (Bioorg Med Chem Lett, 2006)
